In ChEMBL document CHEMBL1155510, “Scaffold rearrangement of dihydroxypyrimidine inhibitors of HIV integrase: Docking model revisited” (Bioorg Med Chem Lett, 2010):

Tests used:
[1] = Inhibition of HIV integrase 3'-end processing reaction; design: species or system Human immunodeficiency virus
[2] = Inhibition of HIV integrase strand transfer activity; design: species or system Human immunodeficiency virus

| SMILES | IC50 [1] [µM] | IC50 [2] [µM] |
| --- | --- | --- |
| COCCNC(=O)c1nc(Cc2ccc(F)cc2)[nH]c(=O)c1O | > 333 | 206 |
| O=C(O)c1nc(Cc2ccc(F)cc2)[nH]c(=O)c1O | > 333 | 243 |
| CNC(=O)c1nc(C)n(Cc2ccc(F)cc2)c(=O)c1O | > 333 | 111 |
| CN(C)CCCNC(=O)c1nc(Cc2ccc(F)cc2)[nH]c(=O)c1O | > 333 | > 333 |
| CNC(=O)c1nc(Cc2ccc(F)cc2)n(C)c(=O)c1O | > 333 | 241 |
| CNC(=O)c1nc(Cc2ccc(F)cc2)[nH]c(=O)c1O | > 333 | 169 |
